The nature of the data set: Solubility in formulation solvents. Type of data set: physicochemical.

Where a name gives a salt, the structure may show the parent alone.

Regarding `O=C1CCCCCCCCCCCCCCO1` [Exaltolide], the “solubility in ethyl acetate” value (ethyl acetate) is “highly soluble”.
On to `CCC(C)(C)c1ccc(CC(C)CN2C[C@@H](C)O[C@@H](C)C2)cc1` (stereo partly drawn) [amorolfine HCl, hydrochloride of the cis-4-[3-[4-(1,1-dimethyl-propyl)phenyl]-2-methylpropyl]-2,6-dimethyl-morpholine], for which the solubility in ethanol result (ethanol) is reported as “particularly soluble”.
